Assay results published in patent US20240254138A1, “TRICYCLIC PYRIMIDINES AS CYCLIN-DEPENDENT KINASE 7 (CDK7) INHIBITORS” (JANSSEN PHARMACEUTICA NV, priority 2021, published 2024).
Like-named read-outs stand apart in the source and are kept apart here.

Columns and labels:
[1] = test system: RNA Polymerase II Serine 5 phosphorylation (Rpb1 CTD, downstream substrate of CDK7) in A549 cells; test: Imaging-based cellular RNA PolII Ser5 phosphorylation assay in A549 cells; format: cell-based, human; conditions: wild-type CDK7, RNA PolII Ser5 phosphorylation, averaged over all measurements; for IC50: Homo sapiens, A549, A549 cells, read-out: CDK7_A549 Wild-type CDK7 (pIC50) (converted); for CDK7_A549 Wild-type CDK7 (pIC50): A549 cells
How it was run: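 A549 cells, seeded 1000/well in DMEM with 1% FBS and cultured 20 h, were treated with compound for 3 h at 37 °C. Ser5-phospho-Rpb1 CTD detected by immunofluorescence imaging after fixation and methanol permeabilization; IC50 from curve fit normalized to DMSO and 10 μM reference-compound controls.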

[2] = molecular target: CDK7/cyclinH/MAT1 trimeric complex (Homo sapiens, UniProt P50613); test: In vitro CDK7 assay, potency of irreversible covalent inhibitors (kinact/KI), coupled PK/LDH ADP readout at 340 nm; conditions: for Ki / CDK7 (20 nM enz.) (kinact, s^−1) / CDK7 (20 nM enz.) (kinact/KI, M^−1*s^−1): 20 nM enzyme; for kinact: read-out: CDK7 (20 nM enz.) (kinact, s^−1), 20 nM enzyme
[3] = test system: RNA Polymerase II Serine 5 phosphorylation in A549 cells overexpressing CDK7-mutant (C312S); test: Imaging-based cellular RNA PolII Ser5 phosphorylation assay in A549 cells overexpressing CDK7-mutant (C312S); format: cell-based, human; conditions: RNA PolII Ser5 phosphorylation, averaged over all measurements; for IC50: Homo sapiens, A549, A549 cells overexpressing CDK7-mutant (C312S), read-out: CDK7_A549 mutant hCDK7(pIC50) (converted); for CDK7_A549 mutant hCDK7(pIC50): A549 cells overexpressing CDK7-mutant (C312S)
How it was run: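 A549 cells overexpressing CDK7 C312S (with endogenous wild-type CDK7) were treated with compound for 3 h at 37 °C in 1% FBS medium. Phospho-Rpb1 CTD Ser5 was immunostained after fixation and imaged. IC50 came from curve fit of % control, normalised to DMSO and 10 μM reference-compound controls.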

[4] = read-out: CDK7 (20 nM enz.) (kinact/KI, M^−1*s^−1), 20 nM enzyme
[5] = read-out: CDK7 (20 nM enz.) (kobs/[I], M^−1*s^−1), 20 nM enzyme

Chain of CDK7/cyclinH/MAT1 trimeric complex (P50613 whole entry): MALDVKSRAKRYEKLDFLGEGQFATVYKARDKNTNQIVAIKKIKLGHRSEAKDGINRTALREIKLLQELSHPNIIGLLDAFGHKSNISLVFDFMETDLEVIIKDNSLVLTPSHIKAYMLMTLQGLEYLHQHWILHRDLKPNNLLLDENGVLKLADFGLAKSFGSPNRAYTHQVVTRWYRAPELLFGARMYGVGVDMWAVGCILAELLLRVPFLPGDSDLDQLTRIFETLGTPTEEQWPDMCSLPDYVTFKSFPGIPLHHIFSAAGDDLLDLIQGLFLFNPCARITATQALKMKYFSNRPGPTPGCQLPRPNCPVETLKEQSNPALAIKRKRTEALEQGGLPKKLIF
Chain of CDK7/cyclinH/MAT1 trimeric complex (P51946 whole entry partner): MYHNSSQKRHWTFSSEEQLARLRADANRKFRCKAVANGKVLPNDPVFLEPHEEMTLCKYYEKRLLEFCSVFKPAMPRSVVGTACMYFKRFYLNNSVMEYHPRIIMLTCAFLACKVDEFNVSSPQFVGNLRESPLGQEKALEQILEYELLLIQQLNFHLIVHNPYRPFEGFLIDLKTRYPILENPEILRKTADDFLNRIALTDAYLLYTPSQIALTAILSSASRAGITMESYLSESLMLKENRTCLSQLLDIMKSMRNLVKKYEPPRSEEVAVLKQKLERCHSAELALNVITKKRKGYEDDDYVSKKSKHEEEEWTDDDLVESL
Chain of CDK7/cyclinH/MAT1 trimeric complex (P51948 whole entry partner): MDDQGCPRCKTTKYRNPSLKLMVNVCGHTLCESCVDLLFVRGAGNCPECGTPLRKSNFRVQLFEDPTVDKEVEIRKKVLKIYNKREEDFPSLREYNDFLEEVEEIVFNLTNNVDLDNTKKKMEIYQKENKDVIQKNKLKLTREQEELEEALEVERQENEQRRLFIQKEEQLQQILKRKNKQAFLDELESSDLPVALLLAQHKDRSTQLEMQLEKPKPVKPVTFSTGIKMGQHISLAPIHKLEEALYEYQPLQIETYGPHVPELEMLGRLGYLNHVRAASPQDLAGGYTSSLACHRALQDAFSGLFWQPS

Structure (SMILES) | IC50 [1] | kinact/KI [2, 4] | IC50 [3] | Ki ([2]; CDK7 (20 nM enz.) (KI, μM)) | kinact [2] | CDK7_A549 Wild-type CDK7 (pIC50) [1] | CDK7 (20 nM enz.) (kinact, s^−1) [2] | CDK7 (20 nM enz.) (kinact/KI, M^−1*s^−1) [2] | Ki ([2]; read-out: CDK7 (20 nM enz.) (KI)) | CDK7_A549 mutant hCDK7(pIC50) [3] | kinact/KI [2, 5]
CC#CC(=O)N1CC(N2CC(c3cc4c(c(C)n3)O[C@@H](C)c3c(C5CCOCC5)ccnc3N4)C2)C1 (single isomer, unassigned) [Compound 487] | > 10 µM | 1.54 M⁻¹ s⁻¹ | > 10 µM |  |  |  |  |  |  |  | 
CC#CC(=O)N1CC(N2CC(c3cc4c(c(C)n3)O[C@H](C)c3c(C5CCOCC5)ccnc3N4)C2)C1 (single isomer, unassigned) [Compound 488] | ~0.302 µM | 129 M⁻¹ s⁻¹ | > 10 µM | 0.328 µM | 4.23e-05 s⁻¹ |  |  |  |  |  | 
C=CC(=O)N1CCC(N2CC(c3cc4c(c(C#N)n3)O[C@H](C)c3c(N5CCOCC5)ccnc3N4)C2)CC1 (single isomer, unassigned) [Compound 489] | 0.0589 µM | 305 M⁻¹ s⁻¹ | 3.47 µM |  |  |  |  |  |  |  | 
C=CC(=O)N1CCC(N2CC(c3cc4c(c(C#N)n3)O[C@@H](C)c3c(N5CCOCC5)ccnc3N4)C2)CC1 (single isomer, unassigned) [Compound 491] | 0.479 µM | 61.4 M⁻¹ s⁻¹ | > 10 µM | 0.403 µM | 2.48e-05 s⁻¹ |  |  |  |  |  | 
C=CC(=O)N1CC[C@@H](N2CC(c3cc4c(c(C(F)(F)F)n3)OCc3c(-c5cnn(C)c5)ccnc3N4)C2)C1 (single isomer, unassigned) [Compound 495] | 0.145 µM | 754 M⁻¹ s⁻¹ | > 10 µM | 0.0763 µM | 5.75e-05 s⁻¹ |  |  |  |  |  | 
C=CC(=O)N1CC[C@H](N2CC(c3cc4c(c(C(F)(F)F)n3)OCc3c(-c5cnn(C)c5)ccnc3N4)C2)C1 (single isomer, unassigned) [Compound 497] | 0.138 µM | 1270 M⁻¹ s⁻¹ | > 10 µM | 0.0437 µM | 5.55e-05 s⁻¹ |  |  |  |  |  | 
CC#CC(=O)N1CC(N2CCC(c3cc4c(c(C5CC5)n3)O[C@@H](C)c3c(N5CCOCC5)ccnc3N4)CC2)C1 (single isomer, unassigned) [Compound 498] | 0.148 µM | 594 M⁻¹ s⁻¹ | > 10 µM | 0.0867 µM | 5.15e-05 s⁻¹ |  |  |  |  |  | 
CC#CC(=O)N1CC(N2CCC(c3cc4c(c(C5CC5)n3)O[C@H](C)c3c(N5CCOCC5)ccnc3N4)CC2)C1 (single isomer, unassigned) [Compound 499] |  |  |  |  |  | 5.74 | 4.482e-05 s⁻¹ | 20.4314 M⁻¹ s⁻¹ | 2.19 µM | <5 | 
C=CC(=O)N1CC[C@H](N2CC(c3cc4c(c(C(F)(F)F)n3)O[C@@H](C)c3c(N5CCOCC5)ccnc3N4)C2)C1 (single isomer, unassigned) [Compound 500] | 1.2 µM | 12.7 M⁻¹ s⁻¹ | > 10 µM |  |  |  |  |  |  |  | 
C=CC(=O)N1CC[C@H](N2CC(c3cc4c(c(C(F)(F)F)n3)O[C@H](C)c3c(N5CCOCC5)ccnc3N4)C2)C1 (single isomer, unassigned) [Compound 501] |  |  | > 10 µM | 2.35 µM | 3.59e-05 s⁻¹ | 5.78 |  | 15.2689 M⁻¹ s⁻¹ |  |  | 
CC#CC(=O)N1CCC(N2CC(c3cc4c(c(C(F)(F)F)n3)O[C@@H](C)c3c(N5CCOCC5)ccnc3N4)C2)CC1 (single isomer, unassigned) [Compound 502] | 0.603 µM | 9.74 M⁻¹ s⁻¹ | > 10 µM |  |  |  |  |  |  |  | 
C=CC(=O)N1CC[C@H](N2CC(c3cc4c(c(C(F)(F)F)n3)O[C@H](C)c3c(N5CCOCC5)ccnc3N4)C2)C1 (single isomer, unassigned) [Compound 503] |  |  |  |  |  | 6.88 |  | 629.38 M⁻¹ s⁻¹ |  | 5.12 | 
C=CC(=O)N1CC[C@@H](N2CC(c3cc4c(c(C(F)(F)F)n3)O[C@@H](C)c3c(N5CCOCC5)ccnc3N4)C2)C1 (single isomer, unassigned) [Compound 504] | 0.0479 µM | 681 M⁻¹ s⁻¹ | 7.76 µM |  |  |  |  |  |  |  | 
CC#CC(=O)N1CCC(N2CC(c3cc4c(c(C(F)(F)F)n3)O[C@H](C)c3c(N5CCOCC5)ccnc3N4)C2)CC1 (single isomer, unassigned) [Compound 505] | 0.038 µM | 246 M⁻¹ s⁻¹ | 2.4 µM |  |  |  |  |  |  |  | 
C=CC(=O)N1CC[C@@H](N2CC(c3cc4c(c(C#N)n3)O[C@H](C)c3c(N5CCOCC5)ccnc3N4)C2)C1 (single isomer, unassigned) [Compound 506] | 0.102 µM |  | 8.32 µM |  |  |  |  |  |  |  | 348 M⁻¹ s⁻¹
C=CC(=O)N1CC[C@H](N2CC(c3cc4c(c(C#N)n3)O[C@H](C)c3c(N5CCOCC5)ccnc3N4)C2)C1 (single isomer, unassigned) [Compound 507] | 0.11 µM |  | 8.13 µM |  |  |  |  |  |  |  | 389 M⁻¹ s⁻¹
C=CC(=O)N1CC[C@H](N2CC(c3cc4c(c(C#N)n3)O[C@@H](C)c3c(N5CCOCC5)ccnc3N4)C2)C1 (single isomer, unassigned) [Compound 508] | 2.88 µM | 6.21 M⁻¹ s⁻¹ | > 10 µM |  |  |  |  |  |  |  | 
C=CC(=O)N1CC[C@@H](N2CC(c3cc4c(c(C#N)n3)O[C@@H](C)c3c(N5CCOCC5)ccnc3N4)C2)C1 (single isomer, unassigned) [Compound 509] | 2.4 µM | 14.5 M⁻¹ s⁻¹ | > 10 µM | 1.28 µM | 1.85e-05 s⁻¹ |  |  |  |  |  | 
CC#CC(=O)N1CC(N2CCC(c3cc4c(c(C)n3)O[C@H](C)c3c(N5CCOCC5)ccnc3N4)CC2)C1 (single isomer, unassigned) [Compound 510] |  |  |  | 0.052 µM |  | 6.72 | 3.092e-05 s⁻¹ | 594.812 M⁻¹ s⁻¹ |  | <5 | 
CC#CC(=O)N1CCC(N2CC(c3cc4c(c(C#N)n3)O[C@H](C)c3c(C5CCOCC5)ccnc3N4)C2)CC1 (single isomer, unassigned) [Compound 517] | 3.02 µM | 14.3 M⁻¹ s⁻¹ | > 10 µM | 2.91 µM | 4.23e-05 s⁻¹ |  |  |  |  |  | 
CC#CC(=O)N1CCC(N2CC(c3cc4c(c(C#N)n3)O[C@@H](C)c3c(C5CCOCC5)ccnc3N4)C2)CC1 (single isomer, unassigned) [Compound 518] | 0.0646 µM | 4340 M⁻¹ s⁻¹ | 4.07 µM | 0.0075 µM | 3.26e-05 s⁻¹ |  |  |  |  |  | 
CC#CC(=O)N1CC(N2CCC(c3cc4c(c(C#N)n3)O[C@@H](C)c3c(N5CCOCC5)ccnc3N4)CC2)C1 (single isomer, unassigned) [Compound 520] | 0.158 µM |  | > 10 µM | 0.00977 µM | 2.91e-05 s⁻¹ |  |  | 2981 M⁻¹ s⁻¹ |  |  | 
CC#CC(=O)N1CC(N2CC[C@@H](c3cc4c(c(C)n3)O[C@@H](C)c3c(N5CCOCC5)ccnc3N4)N(C)CC2)C1 (single isomer, unassigned) [Compound 521] | 5.25 µM | 15.9 M⁻¹ s⁻¹ | > 10 µM | 1.71 µM | 2.72e-05 s⁻¹ |  |  |  |  |  | 
CC#CC(=O)N1CC(N2CC[C@H](c3cc4c(c(C)n3)O[C@H](C)c3c(N5CCOCC5)ccnc3N4)N(C)CC2)C1 (single isomer, unassigned) [Compound 525] | 0.141 µM | 1320 M⁻¹ s⁻¹ | 5.37 µM | 0.0109 µM | 1.44e-05 s⁻¹ |  |  |  |  |  | 
CC#CC(=O)N1CC(N2CC[C@@H](c3cc4c(c(C)n3)O[C@H](C)c3c(N5CCOCC5)ccnc3N4)N(C)CC2)C1 (single isomer, unassigned) [Compound 527] | 9.77 µM | 8.74 M⁻¹ s⁻¹ | > 10 µM | 1.81 µM | 1.58e-05 s⁻¹ |  |  |  |  |  | 
